Tests used:
THR-β/RXR-α = biological target: T1, THR-β/RXR-α (Homo sapiens, UniProt P10828); format: biochemical; conditions: RXR heterodimer assay; compound activity normalized to T3 for THR-β/RXR-α and THR-α/RXR-α
T1 sequence (P10828 202-461 limits assumed): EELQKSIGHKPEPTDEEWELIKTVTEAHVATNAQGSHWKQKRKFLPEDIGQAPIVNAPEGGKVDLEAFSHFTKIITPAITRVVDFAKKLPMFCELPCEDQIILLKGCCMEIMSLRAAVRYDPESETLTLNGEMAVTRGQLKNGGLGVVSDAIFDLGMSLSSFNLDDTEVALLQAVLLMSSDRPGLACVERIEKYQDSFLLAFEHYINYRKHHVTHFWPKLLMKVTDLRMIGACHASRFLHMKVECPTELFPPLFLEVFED
T1 sequence (P19793 225-462 partner limits assumed): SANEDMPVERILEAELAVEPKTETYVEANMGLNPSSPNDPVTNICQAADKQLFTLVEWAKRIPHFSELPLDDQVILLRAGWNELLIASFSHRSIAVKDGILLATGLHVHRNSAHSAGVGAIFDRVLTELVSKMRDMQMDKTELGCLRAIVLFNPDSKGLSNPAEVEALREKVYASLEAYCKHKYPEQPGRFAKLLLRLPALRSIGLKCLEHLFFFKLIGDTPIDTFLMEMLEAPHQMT
T1 sequence (Q15596 679-703 partner limits assumed): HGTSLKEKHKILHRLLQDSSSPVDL

TR beta-LBD = biological target: T2, TR beta-LBD (Homo sapiens, UniProt P10828); format: biochemical; conditions: TR-FRET assay; THR beta over THR alpha, derived from T3-selectivity normalized data
T2 sequence (P10828 217-461 limits assumed): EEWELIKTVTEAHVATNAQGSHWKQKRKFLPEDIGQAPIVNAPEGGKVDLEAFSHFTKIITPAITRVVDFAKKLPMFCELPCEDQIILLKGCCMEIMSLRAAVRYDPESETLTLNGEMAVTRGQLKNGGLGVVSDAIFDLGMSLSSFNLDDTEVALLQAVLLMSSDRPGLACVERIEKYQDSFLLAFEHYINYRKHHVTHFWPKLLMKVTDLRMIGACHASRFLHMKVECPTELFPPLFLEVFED

| SMILES | THRβ-Selectivity (THR-β/RXR-α) | THRβ-Selectivity (TR beta-LBD) |
| --- | --- | --- |
| N#Cc1nn(-c2cc(Cl)c(Oc3ccc4ncn(C5CC5)c4c3)c(Cl)c2)c(=O)[nH]c1=O [Example 23, 2-(3,5-dichloro-4-((1-cyclopropyl-1H-benzo[d]imidazol-6-yl)oxy)phenyl)-3,5-dioxo-2,3,4,5-tetrahydro-1,2,4-triazine-6-carbonitrile] | 5.7 | 20.2 |
| O=C(Nc1cc(Cl)c(Oc2ccc3nccc(C4CC4)c3c2)c(Cl)c1)c1noc(=O)[nH]1 [Example 51, N-(3,5-dichloro-4-((4-cyclopropylquinolin-6-yl)oxy)phenyl)-5-oxo-4,5-dihydro-1,2,4-oxadiazole-3-carboxamide] | 8.1 | – |
| Cc1n[nH]c2ncc(Oc3c(Cl)cc(NC(=O)c4noc(=O)[nH]4)cc3Cl)cc12 [Example 6, N-(3,5-dichloro-4-((3-methyl-1H-pyrazolo[3,4-b]pyridin-5-yl)oxy)phenyl)-5-oxo-4,5-dihydro-1,2,4-oxadiazole-3-carboxamide] | 5.6 | >18.5 |
| Cc1ccnc2ccc(Oc3c(Cl)cc(NC(=O)c4noc(=O)[nH]4)cc3Cl)cc12 [Example 25, N-(3,5-dichloro-4-((4-methylquinolin-6-yl)oxy)phenyl)-5-oxo-4,5-dihydro-1,2,4-oxadiazole-3-carboxamide] | 5.7 | 1286.7 |
| CC(C)n1c(=O)[nH]c2ccc(Oc3c(Cl)cc(NC(=O)c4noc(=O)[nH]4)cc3Cl)cc21 [Example 30, N-(3,5-dichloro-4-((3-isopropyl-2-oxo-2,3-dihydro-1H-benzo[d]imidazol-5-yl)oxy)phenyl)-5-oxo-4,5-dihydro-1,2,4-oxadiazole-3-carboxamide] | 9.9 | – |
| CC(C)(C)n1cnc2ccc(Oc3c(Cl)cc(NC(=O)c4noc(=O)[nH]4)cc3Cl)cc21 [Example 37, N-(4-((1-(tert-butyl)-1H-benzo[d]imidazol-6-yl)oxy)-3,5-dichlorophenyl)-5-oxo-4,5-dihydro-1,2,4-oxadiazole-3-carboxamide] | 8.3 | – |
| N#Cc1nn(-c2cc(Cl)c(Oc3ccc4nccc(C5CC5)c4c3)c(Cl)c2)c(=O)[nH]c1=O [Example 52, 2-(3,5-dichloro-4-((4-cyclopropylquinolin-6-yl)oxy)phenyl)-3,5-dioxo-2,3,4,5-tetrahydro-1,2,4-triazine-6-carbonitrile] | 11.9 | – |
| O=C(Nc1cc(Cl)c(Oc2ccc3ncn(C4(C(F)(F)F)CC4)c3c2)c(Cl)c1)c1noc(=O)[nH]1 [Example 53, N-(3,5-dichloro-4-((1-(1-(trifluoromethyl)cyclopropyl)-1H-benzo[d]imidazol-6-yl)oxy)phenyl)-5-oxo-4,5-dihydro-1,2,4-oxadiazole-3-carboxamide] | 14.7 | – |
| CC(C)n1cnc2ccc(Oc3c(Cl)cc(NC(=O)c4noc(=O)[nH]4)cc3Cl)cc21 [Example 20, N-(3,5-dichloro-4-((1-isopropyl-1H-benzo[d]imidazol-6-yl)oxy)phenyl)-5-oxo-4,5-dihydro-1,2,4-oxadiazole-3-carboxamide] | 11.3 | 348.9 |
| N#Cc1nn(-c2cc(Cl)c(Oc3ccc4nc5n(c4c3)CCCO5)c(Cl)c2)c(=O)[nH]c1=O [Example 40, 2-(3,5-dichloro-4-((3,4-dihydro-2H-benzo[4,5]imidazo[2,1-b][1,3]oxazin-7-yl)oxy)phenyl)-3,5-dioxo-2,3,4,5-tetrahydro-1,2,4-triazine-6-carbonitrile] | 11.6 | – |
| Cn1cnc2ccc(Oc3c(Cl)cc(-n4nc(C#N)c(=O)[nH]c4=O)cc3Cl)cc21 [Example 19, 2-(3,5-dichloro-4-((1-methyl-1H-benzo[d]imidazol-6-yl)oxy)phenyl)-3,5-dioxo-2,3,4,5-tetrahydro-1,2,4-triazine-6-carbonitrile] | 5.6 | 38.0 |
| CC1(n2cnc3ccc(Oc4c(Cl)cc(-n5nc(C#N)c(=O)[nH]c5=O)cc4Cl)cc32)CC1 [Example 44, 2-(3,5-dichloro-4-((1-(1-methylcyclopropyl)-1H-benzo[d]imidazol-6-yl)oxy)phenyl)-3,5-dioxo-2,3,4,5-tetrahydro-1,2,4-triazine-6-carbonitrile] | 10.1 | – |
| CC1(n2cnc3ccc(Oc4c(Cl)cc(NC(=O)c5noc(=O)[nH]5)cc4Cl)cc32)CC1 [Example 43, N-(3,5-dichloro-4-((1-(1-methylcyclopropyl)-1H-benzo[d]imidazol-6-yl)oxy)phenyl)-5-oxo-4,5-dihydro-1,2,4-oxadiazole-3-carboxamide] | 11.8 | – |
| O=C(Nc1cc(Cl)c(Oc2ccc3ncn(C4CC4)c3c2)c(Cl)c1)c1noc(=O)[nH]1 [Example 22, N-(3,5-dichloro-4-((1-cyclopropyl-1H-benzo[d]imidazol-6-yl)oxy)phenyl)-5-oxo-4,5-dihydro-1,2,4-oxadiazole-3-carboxamide] | 5.9 | >253.0 |
| Cc1n[nH]c2ccc(Oc3c(Cl)cc(-c4n[nH]c(=O)[nH]c4=O)cc3Cl)cc12 [Example 5, 6-(3,5-dichloro-4-((3-methyl-1H-indazol-5-yl)oxy)phenyl)-1,2,4-triazine-3,5(2H,4H)-dione] | 3.1 | 15.6 |
| N#Cc1nn(-c2cc(Cl)c(Oc3ccc4nc(C5CC5)ccc4c3)c(Cl)c2)c(=O)[nH]c1=O [Example 26, 2-(3,5-dichloro-4-((2-cyclopropylquinolin-6-yl)oxy)phenyl)-3,5-dioxo-2,3,4,5-tetrahydro-1,2,4-triazine-6-carbonitrile] | 3.3 | – |
| CCc1ccnc2ccc(Oc3c(Cl)cc(NC(=O)c4noc(=O)[nH]4)cc3Cl)cc12 [Example 36, N-(3,5-dichloro-4-((4-ethylquinolin-6-yl)oxy)phenyl)-5-oxo-4,5-dihydro-1,2,4-oxadiazole-3-carboxamide] | 7.1 | – |
| COc1n[nH]c2ccc(Oc3c(Cl)cc(-n4nc(C#N)c(=O)[nH]c4=O)cc3Cl)cc12 [Example 9, 2-(3,5-dichloro-4-((3-methoxy-1H-indazol-5-yl)oxy)phenyl)-3,5-dioxo-2,3,4,5-tetrahydro-1,2,4-triazine-6-carbonitrile] | 10.3 | 8.0 |
| N#Cc1nn(-c2cc(Cl)c(Oc3ccc4ncn(C5(C(F)F)CC5)c4c3)c(Cl)c2)c(=O)[nH]c1=O [Example 56, 2-(3,5-dichloro-4-((1-(1-(difluoromethyl)cyclopropyl)-1H-benzo[d]imidazol-6-yl)oxy)phenyl)-3,5-dioxo-2,3,4,5-tetrahydro-1,2,4-triazine-6-carbonitrile] | 9.0 | – |
| O=C(Nc1cc(Cl)c(Oc2ccc3nc(C4CC4)ccc3c2)c(Cl)c1)c1noc(=O)[nH]1 [Example 24, N-(3,5-dichloro-4-((2-cyclopropylquinolin-6-yl)oxy)phenyl)-5-oxo-4,5-dihydro-1,2,4-oxadiazole-3-carboxamide] | 4.8 | 8.1 |
| CC(C)n1cnc2ccc(Oc3c(Cl)cc(-n4nc(C#N)c(=O)[nH]c4=O)cc3Cl)cc21 [Example 21, 2-(3,5-dichloro-4-((1-isopropyl-1H-benzo[d]imidazol-6-yl)oxy)phenyl)-3,5-dioxo-2,3,4,5-tetrahydro-1,2,4-triazine-6-carbonitrile] | 10.9 | 12.9 |
| CCc1ccnc2ccc(Oc3c(Cl)cc(-n4nc(C#N)c(=O)[nH]c4=O)cc3Cl)cc12 [Example 35, 2-(3,5-dichloro-4-((4-ethylquinolin-6-yl)oxy)phenyl)-3,5-dioxo-2,3,4,5-tetrahydro-1,2,4-triazine-6-carbonitrile] | 10.2 | – |
| CC(C)(C)n1cnc2ccc(Oc3c(Cl)cc(-n4nc(C#N)c(=O)[nH]c4=O)cc3Cl)cc21 [Example 38, 2-(4-((1-(tert-butyl)-1H-benzo[d]imidazol-6-yl)oxy)-3,5-dichlorophenyl)-3,5-dioxo-2,3,4,5-tetrahydro-1,2,4-triazine-6-carbonitrile] | 8.4 | – |
| O=C(Nc1cc(Cl)c(Oc2ccc3nc4n(c3c2)CCCO4)c(Cl)c1)c1noc(=O)[nH]1 [Example 39, N-(3,5-dichloro-4-((3,4-dihydro-2H-benzo[4,5]imidazo[2,1-b][1,3]oxazin-7-yl)oxy)phenyl)-5-oxo-4,5-dihydro-1,2,4-oxadiazole-3-carboxamide] | 5.1 | – |
| O=C(Nc1cc(Cl)c(Oc2ccc3ncn(C4(C(F)F)CC4)c3c2)c(Cl)c1)c1noc(=O)[nH]1 [Example 55, N-(3,5-dichloro-4-((1-(1-(difluoromethyl)cyclopropyl)-1H-benzo[d]imidazol-6-yl)oxy)phenyl)-5-oxo-4,5-dihydro-1,2,4-oxadiazole-3-carboxamide] | 14.3 | – |
| CCc1c[nH]c2ccc(Oc3c(Cl)cc(-n4nc(C#N)c(=O)[nH]c4=O)cc3Cl)cc12 [Example 59, 2-(3,5-dichloro-4-((3-ethyl-1H-indol-5-yl)oxy)phenyl)-3,5-dioxo-2,3,4,5-tetrahydro-1,2,4-triazine-6-carbonitrile] | 8.4 | – |

— patent US12528791B2 (priority 2019, dated 2026)
